Source: patent US11365217B2, “Peptides for treating telomere dysfunction-associated diseases and uses thereof” (priority 2018, dated 2022)
“Also recorded” adds a separate entry of the source. Non-standard residues stand in square brackets, D forms with d. No end group written: not given here.

Assays:
[1] = system: Human cervical carcinoma cells Hela; test: Telomere DNA damage in Hela cells under X-ray irradiation, detected by FISH; type: cell-based; details: peptide 4 h; for telomere DNA damage caused by irradiation of X rays: 5-Gy X ray for 1 h
Experimental: Human cervical carcinoma cells Hela were respectively treated with various peptides (as shown in SEQ ID NOs:1-26 in Table 1) for 4 h, and then the cells treated with the same peptide were divided into two groups, which were respectively subjected to 0-Gy and 5-Gy irradiation of X ray for 1 h and detected for telomere DNA damage using fluorescence in situ hybridization (FISH).

[2] = system: carbon tetrachloride-induced liver fibrosis in C57BL/6 mice; test: DST8 in carbon tetrachloride-induced liver fibrosis in mice; type: in vivo; details: 1 mg/kg intraperitoneal weekly, 4 weeks, Masson staining and Western Blot, control GE8
Experimental: 12 6 week old wild female C57BL/6 mice were equally divided into four groups, where two groups of mice were intraperitoneally injected with a solution of 10% carbon tetrachloride in olive oil three times a week (on every Monday, Wednesday and Friday, 5 μL per gram of body weight), and the other two groups of mice were intraperitoneally injected with an equal amount of olive oil as control. The two groups injected with carbon tetrachloride were intraperitoneally injected with DST8 (SerArgAsnGlyThrGluGluThr, in D-amino acids), 1 mg per kilogram of body weight) and GE8 (SEQ ID NO:24), respectively, 4 hours before the first injection of carbon tetrachloride in each week. The two control groups were also intraperitoneally injected with DST8 (1 mg per kilogram of body weight) and GE8, respectively, 4 hours before the first injection of olive oil in each week. After 4 consecutive weeks of administration, the liver was isolated, embedded with paraffin, sectioned and subjected to Masson staining and Western Blot analysis.

[3] = system: bleomycin-induced pulmonary fibrosis in mice; test: ST8 in bleomycin-induced pulmonary fibrosis in mice (intratracheal perfusion); type: in vivo
Experimental: 4 hours later, the mice were all intratracheally perfused with bleomycin (3 mg per kilogram of body weight), and 21 days after the perfusion of peptide, the mice were subjected to endotracheal intubation for the detection of respiratory function. The type II cells were sorted by flow cytometry and calculated for the proportion. The lung tissue RNA was extracted and subjected to real-time quantitative PCR for the detection of mRNA expression of NG2, […], s100a4, α-SMA and Col6a, and the lung proteins were also extracted and detected by Western Blot for the expression of FBW7, TPP1, α-SMA and internal reference GAPDH. The lung tissues were embedded with paraffin, sectioned, subjected to Masson and H&E staining and detected by immunofluorescence assay for the expression of α-SMA. Moreover, 10 mg of lung tissues were employed for the determination of hydroxyproline content; and the telomere length of type II cells (SPC+telomere probe) was detected by FISH.

[4] = system: mice with overexpression of FBW7 in lung tissues; test: ST8 in mice intratracheally perfused with FBW7-lentivirus (overexpression of FBW7 in lung); type: in vivo; details: control GE8
Experimental: 4 hours later, the two groups of mice perfused with ST8 were respectively intratracheally perfused with a control- or FBW7-lentivirus, and the two groups of mice perfused with GE8 were also respectively intratracheally perfused with the control- or FBW7-lentiviruses. The perfusion was performed every other 4 days in a total number of 4. On the fourth day after the fourth perfusion, the mice were subjected to endotracheal intubation for the detection of respiratory function. The type II cells were sorted by flow cytometry and calculated for the proportion. The lung tissue RNA was extracted and subjected to real-time quantitative PCR for the detection of mRNA expression of α-SMA, Col6a, and MMP3, and the lung proteins were also extracted and detected by Western Blot for the expression of FBW7, TPP1, SPC, α-SMA and internal reference GAPDH. The lung tissues were embedded with paraffin, sectioned, subjected to Masson and H&E staining and detected by immunofluorescence assay for the expression of α-SMA. Moreover, the proportion of lung type II epithelial cells (SPC positive cells) was obtained by immunofluorescence assay; and the telomere length of type II cells (SPC+telomere probe) was detected by FISH.

[5] = system: mice under X-ray irradiation; test: DYK21 applied to dorsal skin of mice with or without X-ray irradiation (skin aging, weight loss, premature death)
Source text: 48 2-4 month old wild mice were equally divided into four groups, and the hair in a 2 cm×2 cm region on the back of each of the mice was removed. […] The mice were photographed and weighed every day, and sacrificed on the 8th day to collect the skin tissues.

[6] = system: bleomycin-induced pulmonary fibrosis in mice; test: YK21 in bleomycin-induced pulmonary fibrosis in mice (intratracheal perfusion); type: in vivo
Experimental: The time program of this experiment was shown in FIG. 1E, specifically, 4 hours later, the mice were all intratracheally perfused with bleomycin (3 mg per kilogram of body weight), and 20 hours after the perfusion of bleomycin, two groups of mice were respectively received a second perfusion of YK21 and a second perfusion of YK21h. After 21 days of the first perfusion of peptide, the mice were all subjected to endotracheal intubation for the detection of respiratory function, and the lung tissue RNA was extracted and subjected to real-time quantitative PCR to detect the mRNA expression of TPP1 and SPC. The lung tissues were embedded with paraffin, sectioned, subjected to Masson and H&E staining and detected by immunofluorescence assay for the expression of α-SMA. Moreover, 10 mg of lung tissues were employed for the determination of hydroxyproline content; and the telomere length of alveolar epithelial type II stem cells (SPC+telomere probe) and the telomere DNA damage in lung tissues (53BP1+telomere probe) were detected by FISH.

[7] = dorsal skin application 7 days, 4-Gy X-ray daily, compared to DCTL1
[8] = lung tissue mRNA, real-time quantitative PCR, bleomycin mice, vs YK21h

KTEETGNRSGRRRQRRKKRGY [DKY21]
telomere DNA damage caused by irradiation of X rays [1]: inhibitory effect

SRNGTEET [DST8]
liver fibrosis caused by carbon tetrachloride [2]: prevent the liver fibrosis; also recorded: significantly inhibit

SRNGTEET [ST8]
telomere DNA damage caused by irradiation of X rays [1]: significantly inhibiting | respiratory dysfunction in mice caused by bleomycin ([3]; 1 mg/kg intratracheal, bleomycin 3 mg/kg, day 21, control GE8): alleviate | telomere length of type II cells ([3]; FISH, bleomycin mice, control GE8): extend the telomere | bleomycin-induced pulmonary fibrosis in mice ([3]; Masson, H&E, α-SMA, fibrosis marker mRNA, control GE8): inhibitory effect | FBW7 expression in lung ([3]; Western Blot, bleomycin mice, control GE8): inhibit FBW7 | proportion of lung type II epithelial cells ([3]; flow cytometry, bleomycin mice, control GE8): improved | respiratory dysfunction caused by the overexpression of FBW7 ([4]; 1 mg/kg intratracheal, FBW7-lentivirus perfused 4 times): significant role in alleviating | decrease in the proportion of type II epithelial cells caused by the overexpression of FBW7 ([4]; FBW7-lentivirus mice): significant role in alleviating | pulmonary fibrosis caused by the overexpression of FBW7 ([4]; FBW7-lentivirus mice): significant role in alleviating | reduction in the expression of TPP1 caused by the overexpression of FBW7 ([4]; FBW7-lentivirus mice): significant role in alleviating | telomere shortening caused by the overexpression of FBW7 ([4]; FISH, FBW7-lentivirus mice): significant role in alleviating

TyrGlyArgLysLysArgArgGluArgArgArgGlySerArgAsnGlyThrGluGluThrLys [DYK21] ([dY]G[dR][dK][dK][dR][dR][dE][dR][dR][dR]G[dS][dR][dN]G[dT][dE][dE][dT][dK])
telomere DNA damage caused by irradiation of X rays [1]: inhibitory effect | skin damage and fibrous tissue proliferation (skin fibrosis) caused by X-ray irradiation ([5]; H&E and Masson staining, 4-Gy X-ray daily for 7 days, vs DCTL1): completely free of skin fibrosis; also recorded: significant inhibitory effect | number of dermal stem cells ([5]; application to the dorsal skin of mice): significant increase | number of hair follicles ([5]; application to the dorsal skin of mice, irradiation not mentioned): significant increase | acute death caused by X-ray irradiation ([5]; compared to DCTL1): alleviated the acute death to some extent | life span under X-ray irradiation ([5]; compared to DCTL1): prolonged the life of some mice | weight loss caused by X-ray irradiation ([5]; compared to DCTL1): inhibited the weight loss | body weight [5, 7]: larger in body weight | number of hair follicles [5, 7]: more hair follicles | fibrosis area ([5]; skin, X-ray irradiation, vs DCTL1): smaller fibrosis area

YGRKKRRERRRGSRNGTEETK
telomere DNA damage at a basic level ([1]; 0-Gy): significantly reduce | telomere DNA damage caused by irradiation of X rays [1]: completely inhibit | respiratory function in mice ([6]; 1 mg/kg intratracheal, bleomycin 3 mg/kg, day 21, compared to control peptide YK21h): improve the lung respiratory function; also recorded: significantly improve | pulmonary fibrosis induced by bleomycin ([6]; 1 mg/kg intratracheal, bleomycin 3 mg/kg, day 21, hydroxyproline, Masson, H&E, α-SMA, vs YK21h): prevent the lung aging damage and pulmonary fibrosis; also recorded: inhibit | telomere length of type II epithelial cells ([6]; FISH (SPC+telomere probe), bleomycin mice, vs YK21h): extend telomere length; also recorded: increase | number of lung stem cells ([6]; intratracheal administration to mice in one time): increase the number of lung stem cells | expression of SPC [6, 8]: increase | expression of TPP1 [6, 8]: increase
